Measured values: US4939177A, “Use of avarol for the control of AIDS and ARC” (Merz + Co. GmbH & Co., priority 1986, dated 1990)
Where two headings read alike, the source gives them in different places.

How the values were obtained:
[1] = test system: H9-cells infected with HTLV-III; assay: Growth of HTLV-III infected H9 cells; type: cell-based, human; details: for Cell Concentration: infected H9 cells, four days, controls infected 0.5, uninfected 1.3
Method: For this, the H9 cell line was used, it consisting of a cloned OKT4+ T-cell line in which the AIDS virus propagates (M. Popovic, M. G. Sarngadharan, E. Reed and R. C. Gallo; Science 224, 497-500 (1984)).
(§1) H9-cells (M. Popovic, M. G. Sarngadharan, E. Reed, R. C. Gallo, Science: 224, 1984, 497-500) were treated with Polybren® (hexadimethrinbromide available on the market; 2 μg/ml) for 30 minutes at 37° C., washed free of Polybren and infected with 2×10^8 HTLV-III virus particles (isolated from H9 cell cultures by the method of M. Popovic; see above) per 4×10^5 H9 cells. Some assays which were not treated with drugs were used as positive controls, while different concentrations of the compound to be tested (avarone or avarol and their derivatives) were added to the test samples. The HTLV-III reverse transcriptase activity of these cultures was analyzed in the manner described above.
H9-cells as well as H9-cells infected with HTLV-III were used in a concentration of 0.2×10^6 cells/ml of culture medium for the inoculating of a culture medium. After incubation for four days, the density of the H9-cells was 1.3×10^6 cells/ml, while the density of the H9-cells infected with HTLV-III was only 0.5×10^6 cells/ml; these two values formed the control values.
Thereupon samples of H9-HTLV-III cells, 0.2×10^6 cells/ml, were treated for four days with different concentrations of avarol.

[2] = test system: normal B-lymphocytes; details: cited from earlier work
[3] = test system: HTLV-III p24; type: cell-based; details: for Expression of p24 (in %): none = 100
[4] = test system: Interferon gamma production by peripheral human lymphocytes; assay: Interferon-gamma production by human lymphocytes (buffy coat cells), EIA; type: cell-based
Method: It is therefore advantageous that an anti-AIDS chemotherapeutic agent is provided with the ability to induce gamma Interferon in T-lymphocytes. […] The experiments were performed in vitro, using peripheral human lymphocytes (buffy coat cells) in culture.
Buffy coat cells were prepared by centrifugation on Ficoll-Plaque gradient and washed two times. Subsequently the cells were divided and adjusted to a concentration of 5×1,000,000 cells/ml.
Levels of Interferon were defined by an Enzymeimmunoassay (EIA). Interferon gamma: 96 well flat bottom plates (Greiner, Neurtingen) were coated with a monoclonal antibody recognizing Interferon gamma. 200 μl of the supernatant sample were added per well together with Interferon gamma-peroxidase coupled (50 μl), consisting of the same antibody as used for coating. […] The enzymatic reaction is completed by a preparation containing hydrogen peroxide substrate. The reaction is stopped within 15 minutes by 100 μl of sulfuric acid per well. The amount of Interferon is defined by comparing the extinction of the test sample with a standard curve produced by known values of Interferon gamma.

[5] = test system: HTLV-III p15; assay: HTLV-III p15 expression in H9-HTLV-III cells, immunofluorescence; type: cell-based; details: for Expression of p15 (in %): none = 100
Method: as §1
The immunofluorescence assays were carried out on methanol:acetone (1:1)-fixed cells with the use of monoclonal antibodies (from the mouse) against HTLV-III p15 (core protein of MW=15,000) and p24 (core protein of MW=24,000). Both of these proteins are marker proteins which indicate the presence of virus particles in the cells. The HTLV-III Infected cells with or without drug treatment were fixed on toxoplasmosis slides. After fixation with methanol-acetone (1:1) for 30 minutes at room temperature, the slides were stored in sealed plastic containers at -20° C. until use. The monoclonal antibodies were added to the cells, incubated at room temperature in a moisture chamber for one hour and washed for two hours with PBS (phospate buffered saline) containing 0.25% Triton X-100. The cells were then treated for one hour with fluorescein (FITC) labeled goat anti-mouse IgG (Capell Labs.) and washed overnight with PBS buffer containing 0.25% Triton X-100. Fifty percent glycerin was added to the slides and the cell fluorescence was determined with a Zeiss fluorescence microscope.
When the target H9-cells were treated with the HTLV-III isolate and cultivated without the compounds to be tested, the H9-cells were infected and, as established by indirect immunofluorescence assay, there was expression of the p24 and p15 protein. After incubation of the H9-HTLV-III cells with the compounds to be tested, a practically complete protective effect was observed.

[6] = test system: herpes simplex virus; details: in vitro, cultures of herpes simplex virus; cited from earlier work
[7] = test system: human peripheral blood lymphocytes (IgG); assay: In vitro IgG production by peripheral blood lymphocytes; type: cell-based
Method: Human peripheral blood lymphocytes (6×10^5 cells/ml) were cultured in the presence of 0 to 2 μg/ml of pokeweed mitogen (PWM; Sigma no. 9379) in Dulbeccos minimum essential medium, supplemented with 20% fetal calf serum, for 6 days. The assays were performed in a final volume of 200 μl in microtiter plates (Dynatech; M129B) (Muller et al., Eur. J. Cancer Clin. Oncol. 22: 473-476; 1986). Avarol in a concentration range of 0-3 μg/ml was added at time 0 or 3 days after starting the culture. The supernatants were harvested and assayed for human immunoglobulin content.
The culture supernatants were assayed by the enzyme-linked immunosorbent assay (Houtman et al., Clin. Exp. Immunol. 62: 696-704; 1985) using anti-human IgG (Dakopatts, Hamburg; P214) and anti-human IgM (Dakopatts; P215). These antibodies were conjugated to peroxidase. Bound enzyme activity was measured using 2,2'-azino-bis(3-ethylbenzthiazolinesulfonic acid) (Sigma no. A-1888) as substrate.

CC1=CCC[C@H]2[C@](C)(Cc3cc(O)ccc3O)[C@@H](C)CC[C@]12C [Avarol, 2-[(1R)-1,2,3,4,4a,7,8,8aα-octahydro-1β,2β,4aβ,5-tetramethyl-1-naphthylmethyl]-1,4-benzenediol]
growth rate of H9-HTLV-III cells ([1]; about 0.01 μg/ml): increase the growth rate of H9-HTLV-III cells to values which lie within the range of the control | Cell Concentration ([1]; 0.1 μg/ml): 1.42e+06 mL⁻¹ | Cell Concentration ([1]; 1 μg/ml): 1.09e+06 mL⁻¹ | concentration inhibiting [^3 H] dThd-incorporation rate by 50% [2]: 1.6 to 1.9 µg/mL | Expression of p24 (in %) ([3]; 0.1 μg/ml): 28% | Expression of p24 (in %) ([3]; 1 μg/ml): 14% | Expression of p24 (in %) ([3]; 5 μg/ml): 14% | expression of HTLV-III protein p24, in words ([3]; H9-HTLV-III cells): significant reduction | Titer of Interferon-gamma ([4]; 0.2 μg/ml, 0 hours, untreated 2): 4 Units/ml of supernatant | Titer of Interferon-gamma ([4]; 0.2 μg/ml, 24 hours, untreated 5): 17 Units/ml of supernatant | Titer of Interferon-gamma ([4]; 0.2 μg/ml, 48 hours, untreated 3): 24 Units/ml of supernatant | Titer of Interferon-gamma ([4]; 0.2 μg/ml, 72 hours, untreated 7): 26 Units/ml of supernatant | Titer of Interferon-gamma ([4]; 0.2 μg/ml, 96 hours, untreated 4): 21 Units/ml of supernatant | Titer of Interferon-gamma ([4]; 0.5 μg/ml, 0 hours, untreated 2): 4 Units/ml of supernatant | Titer of Interferon-gamma ([4]; 0.5 μg/ml, 24 hours, untreated 5): 23 Units/ml of supernatant | Titer of Interferon-gamma ([4]; 0.5 μg/ml, 48 hours, untreated 3): 74 Units/ml of supernatant | Titer of Interferon-gamma ([4]; 0.5 μg/ml, 72 hours, untreated 7): 89 Units/ml of supernatant | Titer of Interferon-gamma ([4]; 0.5 μg/ml, 96 hours, untreated 4): 118 Units/ml of supernatant | Titer of Interferon-gamma ([4]; 1.0 μg/ml, 0 hours, untreated 2): 3 Units/ml of supernatant | Titer of Interferon-gamma ([4]; 1.0 μg/ml, 24 hours, untreated 5): 20 Units/ml of supernatant | Titer of Interferon-gamma ([4]; 1.0 μg/ml, 48 hours, untreated 3): 52 Units/ml of supernatant | Titer of Interferon-gamma ([4]; 1.0 μg/ml, 72 hours, untreated 7): 62 Units/ml of supernatant | Titer of Interferon-gamma ([4]; 1.0 μg/ml, 96 hours, untreated 4): 73 Units/ml of supernatant | optimal dose for Interferon gamma induction ([4]; in vitro): 0.5 µg/mL | Expression of p15 (in %) ([5]; 0.1 μg/ml): 37% | Expression of p15 (in %) ([5]; 1 μg/ml): 12% | Expression of p15 (in %) ([5]; 5 μg/ml): 12% | expression of HTLV-III protein p15, in words ([5]; H9-HTLV-III cells): significant reduction | virostatic action [6]: certain virostatic action in vitro | IgG production, in words ([7]; 0.3 or 1 μg/ml, irrespective of PWM): significant increase | IgG synthesized ([7]; avarol 0.3 μg/ml, PWM +, 0 to 6 days): 6.7 ± 1.5 µg/mL | IgG synthesized ([7]; avarol 0.3 μg/ml, PWM +, 3 to 6 days): 7.9 ± 1.9 µg/mL | IgG synthesized ([7]; avarol 0.3 μg/ml, PWM -, 0 to 6 days): 2.1 ± 0.5 µg/mL | IgG synthesized ([7]; avarol 0.3 μg/ml, PWM -, 3 to 6 days): 2.0 ± 0.5 µg/mL | IgG synthesized ([7]; avarol 1.0 μg/ml, PWM +, 0 to 6 days): 7.0 ± 1.6 µg/mL | IgG synthesized ([7]; avarol 1.0 μg/ml, PWM +, 3 to 6 days): 8.5 ± 1.9 µg/mL | IgG synthesized ([7]; avarol 1.0 μg/ml, PWM -, 0 to 6 days): 2.3 ± 0.6 µg/mL | IgG synthesized ([7]; avarol 1.0 μg/ml, PWM -, 3 to 6 days): 2.2 ± 0.5 µg/mL | IgG synthesized ([7]; avarol 3.0 μg/ml, PWM +, 0 to 6 days): 3.9 ± 1.0 µg/mL | IgG synthesized ([7]; avarol 3.0 μg/ml, PWM +, 3 to 6 days): 4.9 ± 1.0 µg/mL | IgG synthesized ([7]; avarol 3.0 μg/ml, PWM -, 0 to 6 days): 1.2 ± 0.3 µg/mL | IgG synthesized ([7]; avarol 3.0 μg/ml, PWM -, 3 to 6 days): 1.3 ± 0.3 µg/mL | IgG production, in words ([7]; higher avarol concentrations): turned to normal values
